The target in one data set is T1, CYP1A2 (Homo sapiens, UniProt P05177).
T1 construct: 0.25 mg/mL human liver microsomes; from tissue; host or cells: human liver microsomes
T1 sequence (P05177 1-516): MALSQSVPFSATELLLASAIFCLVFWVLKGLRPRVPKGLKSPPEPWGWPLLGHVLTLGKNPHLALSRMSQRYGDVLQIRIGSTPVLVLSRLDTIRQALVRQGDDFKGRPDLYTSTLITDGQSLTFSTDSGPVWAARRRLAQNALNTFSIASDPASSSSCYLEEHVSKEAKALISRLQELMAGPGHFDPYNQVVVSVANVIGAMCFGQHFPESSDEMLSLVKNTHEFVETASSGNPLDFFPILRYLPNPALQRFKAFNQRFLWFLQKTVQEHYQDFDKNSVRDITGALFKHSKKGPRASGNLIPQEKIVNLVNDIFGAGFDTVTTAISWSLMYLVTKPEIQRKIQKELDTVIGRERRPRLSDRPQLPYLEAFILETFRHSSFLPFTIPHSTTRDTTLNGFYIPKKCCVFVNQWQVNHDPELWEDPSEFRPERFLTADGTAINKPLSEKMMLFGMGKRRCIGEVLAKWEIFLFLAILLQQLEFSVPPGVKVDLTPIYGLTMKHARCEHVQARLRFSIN
The data set can be described thus: CYP inhibition assay CYP1A2 (phenacetin O-demethylase). The settings on record: 10 μM, human liver microsomes, n = 3. It is filed as in vitro ADME.

A further data set deals with CYP3A4 (Homo sapiens, UniProt P08684). Nature of the data set: CYP inhibition assay CYP3A4 (midazolam 1'-hydroxylase). The settings on record: 10 μM, human liver microsomes, n = 3.
Sequence of CYP3A4 (P08684 whole entry): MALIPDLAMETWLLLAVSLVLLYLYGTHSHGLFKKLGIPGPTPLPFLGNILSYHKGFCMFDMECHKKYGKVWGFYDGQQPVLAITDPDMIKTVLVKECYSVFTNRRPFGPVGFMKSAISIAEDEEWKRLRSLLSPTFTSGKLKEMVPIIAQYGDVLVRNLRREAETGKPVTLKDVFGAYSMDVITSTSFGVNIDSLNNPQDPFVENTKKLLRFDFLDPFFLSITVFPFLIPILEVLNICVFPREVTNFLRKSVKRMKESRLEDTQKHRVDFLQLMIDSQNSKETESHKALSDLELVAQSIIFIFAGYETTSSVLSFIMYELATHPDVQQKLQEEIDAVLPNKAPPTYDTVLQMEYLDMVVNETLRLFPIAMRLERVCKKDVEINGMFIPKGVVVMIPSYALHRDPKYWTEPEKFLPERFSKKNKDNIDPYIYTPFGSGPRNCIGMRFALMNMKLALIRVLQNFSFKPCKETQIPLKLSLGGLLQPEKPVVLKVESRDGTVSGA
The next data set is described as follows: PK studies in rats. It counts as in vivo, SD rats. The settings on record: for AUC(0-t) / half-life / Cmax / Tmax / bioavailability: male, Sprague-Dawley, rat, plasma, SD rats, n = 3. The method, then: CRF1R antagonist PKs were studied in naïve male SD rats following a single i.v. bolus injection or p.o. gavage. The i.v. injections used Antalarmin, BMK-C203, or BMK-C205 at doses of 5 mg/kg and BMK-I-152 at a dose of 1 mg/kg. The antagonist’s doses in the p.o. injection was 10 mg/kg. Three male SD rats weighing between 220 and 260 g were used to evaluate CRF1R antagonist PKs. The vehicle used for all dose groups was […]: TPGS: PEG400 (70%:20%:10%). Blood samples were collected from all treatment groups at 0 h (predose), 0.083, 0.25, 0.5, 1, 2, 4, 6, 8, and 24 h after dosing. Antalarmin, BMK-I-152, BMK-C203, and BMK-C205 concentrations in the plasma samples were determined via LC‒MS/MS (LLOQ was 1 ng/mL for CRF1R antagonists). PK parameter estimates were determined using the serial time-course profiles for plasma concentrations of three male rats per group via noncompartmental analysis using commercially available software (Phoenix WinNonlin, version 8.1, Pharsight Corporation, Mountain View, CA).

For the next data set, the system named is C57BL/6J mice. Nature of the data set: Open field test (OFT). It counts as in vivo. To be noted: 30 mg/kg orally for 3 days, 1 h open field. The method, then:
C57BL/6J mice (male, 9–10 weeks old) were used for the behavioral tests. All mice were maintained under a 12:12-h light–dark cycle (lights on at 7:00 A.M.) with access to food and water ad libitum. Animal care and handling were performed according to guidelines by the Institutional Animal Care and Use Committee of Yonsei University (Seoul, Korea). Antalarmin, BMK-C203, and BMK-C205 were dissolved in peceol: TPGS: PEG400 (vehicle) (70%:20%:10%, respectively) and administered orally at a dose of 30 mg/kg for 3 days at 24-h intervals. All behavioral tests were conducted 2 h after the third drug was administered during light periods of the circadian cycle. TSTs were performed to verify the effect of CRF1R antagonists on depressive-like behavior. Each mouse was suspended by its tail on a bar 30 cm above the ground for 6 min using adhesive tape. Their movements were recorded by a camera and analyzed using the same parameters via EthoVision XT 8.5 software (Noldus Technologies). Immobility times during the last 4 min of the task were measured. Each mouse was placed in an open field (40 cm × 40 cm × 40 cm chamber) for 1 h to conduct an open field test (OFT) and test locomotion. Their locomotion was recorded and analyzed using EthoVision XT 8.5.

The target of a further data set is T2, CRF1R (Homo sapiens, UniProt P34998).
T2 construct: HEK-Gα15 cells (Eurofins Scientific) transfected with CRF1R; host or cells: HEK-Gα15 cells
T2 sequence (P34998 24-415): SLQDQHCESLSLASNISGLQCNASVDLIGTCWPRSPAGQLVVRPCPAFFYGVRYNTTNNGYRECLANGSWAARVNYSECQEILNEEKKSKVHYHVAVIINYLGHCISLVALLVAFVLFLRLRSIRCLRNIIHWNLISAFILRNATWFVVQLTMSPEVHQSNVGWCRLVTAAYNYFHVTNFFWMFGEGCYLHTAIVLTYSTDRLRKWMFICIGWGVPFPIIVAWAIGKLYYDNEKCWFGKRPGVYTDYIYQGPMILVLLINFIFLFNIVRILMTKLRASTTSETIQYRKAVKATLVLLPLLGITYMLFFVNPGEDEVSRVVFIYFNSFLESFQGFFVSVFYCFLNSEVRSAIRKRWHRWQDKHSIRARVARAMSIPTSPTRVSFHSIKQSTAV
The data set can be described thus: Calcium mobilization assay (hCRF1R Ca2+ antagonism). It is filed as cell-based. The settings on record: for IC50: HEK-Gα15 cells transfected with CRF1R, urocortin 2 nM, n = 3. The method, then:
HEK-Gα15 cells (Eurofins Scientific) transfected with CRF1R were plated in 96-well plates at a density of 50,000 cells/100 μL per well and incubated overnight. The next day, the cells were incubated with a Calcium 6 reagent (Molecular Devices) containing 0.5 mM probenecid (Sigma) at 37 °C for 1 h before adding compounds or dimethyl sulfoxide DMSO (positive and negative control; final concentration 0.1%). After incubation at 37 °C for 1 h, 50 μL urocortin (final concentration 2 nM) (Tocris) was dispensed into the well with FLIPR-tetra (Molecular Devices). […] Intracellular calcium changes were recorded at excitation and emission wavelengths of 470–495 and 515–575 nm, respectively. Relative fluorescence units (RFU) were calculated as the fluorescence signal maximum minus the signal minimum for 30 s after addition. The graphs and IC50 concentrations were calculated using GraphPad Prism 6 software.

Entries after “also recorded” stand apart in the source; their conditions may differ. Some results are limits rather than exact numbers.

Protocol for CYP1A2: (§1) Phenacetin O-demethylase, diclofenac 4-hydroxylase, S-mephenytoin 4-hydroxylase, dextromethorphan O-demethylase, and midazolam 1’-hydroxylase activities were determined as probe activities for CYP1A2, CYP2C9, CYP2C19, CYP2D6, and CYP3A4, respectively, using cocktail incubation. […] The cocktail incubation mixtures consisted of 0.25 mg/mL human liver microsomes, 0.1 M phosphate buffer (pH 7.4), an NADPH regeneration system, and inhibitors (CRF1R antagonist compounds, 10 µM) in a total volume of 100 μL. The final volume of the organic solvents in the incubation mixture was 1% (v/v). […] All incubations were performed in triplicate, and the mean values were used for analysis. The samples were then centrifuged at 15,000 rpm for 5 min at 4 °C. […] The CYP-mediated activities in the presence of inhibitors were expressed as percentages of the corresponding control values.
Protocol for CYP3A4: as §1

`COc1cc(Br)cc(OC)c1-c1c(C)nn2c(N(CCCC(F)(F)F)CCCC(F)(F)F)nc(C)nc12` [BMK-C203]: the “CYP1A2, percentage of control activity” value on CYP1A2 is recorded as 95.6 ± 2.9 percentage of control activity. For the same compound, the “CYP3A4, percentage of control activity” value at CYP3A4 is on record as 90.5 ± 2.9 percentage of control activity. In “PK studies in rats” (iv, I.V, 5 mg/kg), the exposure AUC(0-t) was 20600 ng·h/mL and the half-life is 4.76 h. In the data set “PK studies in rats” (po, P.O, 10 mg/kg), the AUC(0-t) was determined as 16100 ng·h/mL, the maximum concentration (Cmax) was 1370 ng/mL, the Tmax amounted to 4.67 h and the bioavailability came to 39.5%. In addition, the half-life in “PK studies in rats” (po, P.O, 10 mg/kg) is 4.22 h. In addition, the “OFT locomotion / overall moving distance” value in the data set on C57BL/6J mice is listed as “did not differ among groups”. Further, the concentration for half-maximal inhibition (IC50) at CRF1R worked out at 280 nM.

In the case of `CCCCN(CC1CC1)c1nc(C)nc2c(-c3c(OC)cc(Br)cc3OC)c(C)nn12` [BMK-C205], the “CYP1A2, percentage of control activity” value on CYP1A2 is on record as > 100 ± 4.2 percentage of control activity. The “CYP3A4, percentage of control activity” value at CYP3A4 is > 100 ± 6.2 percentage of control activity. The “serum concentration relative to BMK-C203” value in the data set “PK studies in rats” (2 h after oral administration in the PK test) is “twice as high”. Moreover, in “PK studies in rats” (iv, I.V, 5 mg/kg), the AUC(0-t) turned out to be 22900 ng·h/mL and the half-life is 6.5 h. Also, in “PK studies in rats” (po, P.O, 10 mg/kg), the exposure AUC(0-t) was found to be 9880 ng·h/mL, the concentration peaked (Cmax) at 2400 ng/mL, the Tmax turned out to be 2 h and the bioavailability was 21.6%. In the data set “PK studies in rats” (po, P.O, 10 mg/kg), the half-life is 3.87 h. Further, the “OFT locomotion / overall moving distance” value with C57BL/6J mice is reported as “did not differ among groups; also recorded: no differences”. The half-inhibitory concentration (IC50) on CRF1R came out at 74 nM. Further, the “IC50 relative to BMK-C203” value on CRF1R (hCRF1R Ca2+ antagonism assay) is reported as “fourfold lower”.

The values above are taken from paper PMC10545732, “Structure-based drug discovery of a corticotropin-releasing hormone receptor 1 antagonist using an X-ray free-electron laser” (Experimental & Molecular Medicine, 2023).
